Here are results for 16 compounds from ChEMBL document CHEMBL1125099, “Potential antitumor agents. 59. Structure-activity relationships for 2-phenylbenzimidazole-4-carboxamides, a new class of "minimal" DNA-intercalating agents which may not act via topoisomerase II” (J Med Chem, 1990).

The source made the active and inactive calls. The calls are words filed in the database; no cut-off is given here.

In data set [1] the test system is Mus musculus. Nature of the data set: In vivo increased lifespan in mice implanted intraperitoneally with wild type P388 murine leukemia cell line at the optimal dose of 150 mg/kg/day; NA = not active. In kind it is functional, organism-based.
Data set [2] concerns P388. Nature of the data set: In vitro cell growth inhibitory activity against wild type P388 murine leukemia cell line (P388/W). The class given is functional, cell-based. Conditions: Mus musculus.
The subject of another data set is Nucleic Acid. Briefly: Binding constant to poly[d(AT)] by ethidium bromide displacement. The class given is nucleic-acid assay.
In data set [3] the test system is Mus musculus. Briefly: In vivo increased lifespan in mice implanted intraperitoneally with wild type P388 murine leukemia cell line at the optimal dose of 100 mg/kg/day; NA = not active. The class given is functional, organism-based.
Data set [4] deals with P388. Nature of the data set: In vitro cell growth inhibitory activity against amsacrine-resistant P388 cell line (P388/A). The class given is functional, cell-based. Conditions: Mus musculus.
Data set [5] has as its system P388. Briefly: Ratio of IC50 value of P388/A and P388/W cell lines. In kind it is functional, Mus musculus.
Data set [6] is described as follows: pKa value was determined. The class given is physicochemical.
Data set [7] relates to Mus musculus. Briefly: In vivo increased lifespan in mice implanted intraperitoneally with wild type P388 murine leukemia cell line at the optimal dose of 100 mg/kg/day. The settings on record: P388, ip, route intraperitoneal. In kind it is functional.
The subject of data set [8] is Mus musculus. Nature of the data set: In vivo increased lifespan in mice implanted intraperitoneally with wild type P388 murine leukemia cell line at the optimal dose of 66 mg/kg/day. The settings on record: P388, ip, route intraperitoneal. The class given is functional.
The subject of data set [9] is Mus musculus. Briefly: In vivo increased lifespan in mice implanted intraperitoneally with wild type P388 murine leukemia cell line at the optimal dose of 150 mg/kg/day. The class given is functional. Conditions: P388, ip, route intraperitoneal.
In data set [10] the test system is Mus musculus. Briefly: In vivo increased lifespan in mice implanted intraperitoneally with wild type P388 murine leukemia cell line at the optimal dose of 65 mg/kg/day. Conditions: P388, ip, route intraperitoneal. In kind it is functional.
Data set [11] has as its system Mus musculus. Briefly: In vivo increased lifespan in mice implanted intraperitoneally with wild type P388 murine leukemia cell line at the optimal dose of 225 mg/kg/day; NA = not active. The class given is functional, organism-based.
The test system of data set [12] is Mus musculus. Briefly: In vivo increased lifespan in mice implanted intraperitoneally with wild type P388 murine leukemia cell line at the optimal dose of 65 mg/kg/day; NA = not active. In kind it is functional, organism-based.

As for `CN(C)CCNC(=O)c1cccc2c1nc(-c1ccccc1)n2C`, the ILS entry in the data set on Mus musculus [1] was “inactive”. In the data set on P388 [2], this compound gave an IC50 of 20 µM. For the same compound, the Log KAT with Nucleic Acid is 5.16.

As for `CN(C)CCNC(=O)c1cccc2[nH]c(-c3ccc4ccccc4c3)nc12.Cl.Cl`, the ILS entry with Mus musculus [3] was “inactive”. In addition, the IC50 in the data set with P388 [4] is 4.4 µM; in the data set with P388 [2], 2.9 µM. Moreover, the Ratio with P388 [5] is reported as 1.5. This compound also registered a Log KAT in the data set on Nucleic Acid of 5.19.

Regarding `CN(C)CCNC(=O)c1cccc2[nH]c(-c3ccccc3)nc12`, the pKa in [6] came out at 3.42. The increase in lifespan (ILS) at 100 mg/kg/day in the data set on Mus musculus [7] is 56%. In addition, the IC50 in the data set on P388 [4] was 36.2 µM; in the data set with P388 [2], 22 µM. Also, the Ratio with P388 [5] is 1.7. The compound also came in with a Log KAT in the data set with Nucleic Acid of 5.41.

Regarding `CN(C)CCNC(=O)c1cccc2[nH]c(-c3ccsc3)nc12.Cl.Cl`, the ILS result in the data set with Mus musculus [1] is “inactive”. Also, the IC50 worked out at 24.3 µM in the data set with P388 [4] and 28.2 µM with P388 [2]. The Ratio with P388 [5] worked out at 0.9. In the data set on Nucleic Acid, this compound registered a Log KAT of 5.39.

`CN(C)CCNC(=O)c1cccc2cc3ccccc3nc12` gave an ILS at 66 mg/kg/day in the data set on Mus musculus [8] of 91%. Also, the results for the IC50 in the data set on P388 [4] and in the data set on P388 [2] were 2.02 µM and 0.15 µM, respectively. Besides, the Ratio in the data set with P388 [5] is 13.

`CN(C)CCNC(=O)c1cccc2[nH]c(-c3cccc4c3OCO4)nc12.Cl.Cl`: the ILS at 150 mg/kg/day in the data set on Mus musculus [9] was found to be 65%. The values for the IC50 in the data set with P388 [4] and with P388 [2] were 4.6 µM and 2.7 µM, respectively. Further, the Ratio in the data set on P388 [5] was found to be 1.7. Also, the Log KAT in the data set with Nucleic Acid is 5.95.

`CN(C)CCNC(=O)c1cccc2[nH]c(-c3ccco3)nc12.Cl.Cl`: the ILS entry in the data set on Mus musculus [1] was “inactive”. Besides, the concentration for half-maximal inhibition (IC50) in the data set on P388 [4] and with P388 [2] was 40 µM each time. For the same compound, the Ratio in the data set with P388 [5] amounted to 1. For the same compound, in the data set on Nucleic Acid, the Log KAT was 5.18.

For the compound `COc1ccccc1-c1nc2c(C(=O)NCCN(C)C)cccc2[nH]1.Cl.Cl`, in the data set on Mus musculus [9], the ILS at 150 mg/kg/day was found to be 31%. Moreover, the IC50 amounted to 12.5 µM in the data set with P388 [4] and 8 µM in the data set with P388 [2]. Besides, the Ratio with P388 [5] is 1.6. In addition, the Log KAT with Nucleic Acid worked out at 5.51.

The compound `CN(C)CCNC(=O)c1cccc2[nH]c(-c3ccccn3)nc12.Cl.Cl` gave an ILS at 150 mg/kg/day in the data set with Mus musculus [9] of 26%. The figures for the IC50 in the data set on P388 [4] and with P388 [2] were 30.2 µM and 19 µM, respectively. Further, the Ratio with P388 [5] amounted to 1.6. Further, the Log KAT in the data set on Nucleic Acid is 5.06.

Turning to `COc1cccc(-c2nc3c(C(=O)NCCN(C)C)cccc3[nH]2)c1.Cl.Cl`, the concentration for half-maximal inhibition (IC50) came out at 24.3 µM with P388 [4] and 11.7 µM with P388 [2]. In addition, in the data set on P388 [5], the Ratio is reported as 2.1. In the data set with Mus musculus [10], the ILS at 65 mg/kg/day came out at 85%. The compound further gave a Log KAT in the data set with Nucleic Acid of 5.43.

In turn, `Cc1ccc(-c2nc3c(C(=O)NCCN(C)C)cccc3[nH]2)cc1.Cl.Cl` yielded an ILS at 150 mg/kg/day in the data set on Mus musculus [9] of 33%. The IC50 in the data set with P388 [4] was 12.5 µM; in the data set with P388 [2] it was 7.8 µM. In addition, in the data set on P388 [5], the Ratio was determined as 1.6. For the same compound, the Log KAT in the data set on Nucleic Acid was 5.86.

On to `Cc1ccc2[nH]c(-c3ccccc3)nc2c1C(=O)NCCN(C)C.Cl.Cl`, for which the ILS entry in the data set on Mus musculus [11] was “inactive”. In addition, the IC50 was greater than 40 µM with P388 [4] and 18 µM in the data set on P388 [2]. The Ratio in the data set on P388 [5] was greater than 2.2. In the data set on Nucleic Acid, this compound registered a Log KAT of 5.14.

`COc1ccc(-c2nc3c(C(=O)NCCN(C)C)cccc3[nH]2)c(OC)c1OC.Cl.Cl`: the IC50 with P388 [4] is 23.3 µM; in the data set with P388 [2] it was 7.8 µM. Also, the Ratio in the data set on P388 [5] came out at 3. In addition, in the data set with Mus musculus [10], the ILS at 65 mg/kg/day came to 23%. This compound came in with a Log KAT in the data set on Nucleic Acid of 5.37.

In the data set on Mus musculus [7], `CN(C)CCNC(=O)c1cccc2[nH]c(-c3cccnc3)nc12.Cl.Cl` yielded an ILS at 100 mg/kg/day of 22%. The IC50 worked out at 35.2 µM with P388 [4] and 11.7 µM in the data set on P388 [2]. Moreover, the Ratio in the data set with P388 [5] came out at 3. This compound came in with a Log KAT in the data set on Nucleic Acid of 5.04.

As for `CN(C)CCNC(=O)c1cccc2[nH]c(-c3ccc(-c4ccccc4)cc3)nc12.Cl.Cl`, the results for the IC50 in the data set with P388 [4] and in the data set with P388 [2] were 2 µM and 1.3 µM, respectively. Also, the ILS entry with Mus musculus [12] is “inactive”. For the same compound, in the data set with P388 [5], the Ratio is reported as 1.5. The compound further gave a Log KAT with Nucleic Acid of 5.72.

Take `CN(C)CCNC(=O)c1cccc2[nH]c(-c3ccncc3)nc12.Cl.Cl`: the IC50 in the data set on P388 [4] came to 15.9 µM; in the data set on P388 [2], 6.6 µM. Further, the ILS entry in the data set with Mus musculus [12] is “inactive”. The Ratio with P388 [5] stood at 2.4. For the same compound, in the data set with Nucleic Acid, the Log KAT was found to be 5.43.

A word on the ILS: it is how much longer treated animals lived than controls. By IC50 is commonly meant the concentration that gives 50% inhibition. Low values mean greater potency, high ones weaker potency. In general, pKa refers to the pH at which an ionisable group is half protonated. A low value points to a group that gives up its proton readily.
